# Experimental data: patent US20230062612A1, “SAFETY SWITCHES FOR REGULATION OF GENE EXPRESSION” (Sana Biotechnology, Inc., priority 2020, published 2023)
# Legend:
# Type in all cases: cell-based
# [1] = test system: EFS-CD-CD47 transduced cells; assay: Cytosine deaminase safety switch: killing of transduced iPSCs by 5-fluorocytosine; conditions: 0.01-1000 μM 5-FC; increasing concentrations; FIG. 16 (middle)
# From the text: To assess the ability of cytosine deaminase to induce cell death in an […] manner, an EFS-cytosine deaminase (CD)-CD47 bicistronic cassette was transduced into wild type iPSCs by lentiviral viral transduction (see FIG. 16, top). In this cassette, a nucleic acid encoding CD is located upstream of a nucleic acid encoding CD47. A 2A sequence located between the CD and CD47 nucleic acids to ensure the two proteins are separate following translation. An EFS promoter controls expression of CD and CD47.
# EFS-CD-CD47 transduced cells and control EFS-CD transduced cells were contacted with 0.01-1000 μM concentrations of 5-fluorocytosine (5-FC) (“5FC”). Cytosine deaminase deaminates 5-FC to toxic 5-fluorouracil (5-FU), thereby killing the cells.
# [2] = test system: human CD47 fused to SMASH tag; assay: SMASH degron CD47 degradation in EFS-SMASH-CD47 transduced iPSCs, flow cytometry; conditions: 0-10 μM asunaprevir for 48 hours, increasing doses
# From the text: Small-molecule assisted shutoff, or SMASH, is a system using the hepatitis C virus (HCV) nonstructural protein 3 (NS3) protease and elements in the NS4A protein to effectively shut off expression of a CD47 protein fused to a SMASH-tag with clinically tested HCV protease inhibitors (FIG. 2). In the absence of protease inhibitor (asunaprevir), a cryptic degron sequence is excised, leading to an unmodified gene product. By addition of asunaprevir, the NS3 protease is inhibited, leading to the degradation of newly synthesized CD47 proteins fused to the degron sequence.
# CD47 expression analysis: After incubation, cells are washed and stained with an anti-CD47 antibody conjugated to Alexa-647 (Biolegend) to detect surface expression of CD47. More specifically, 1×10^6 cells are harvested and resuspended in 100 μl cell staining-buffer (PBS, 0.1% BSA, 0.1% sodium azide) and incubated with 5 μl Alexa-Fluor 647 labelled anti-CD47 antibody for 30 min on ice. Cells are washed in cell staining buffer and subsequently analyzed by flow cytometry. […]
# human CD47 [3] = assay: CD47 expression in control EFS-CD47 transduced and wild-type iPSCs with asunaprevir; conditions: for expression of CD47: 0-10 μM asunaprevir for 48 hours
# Experimental: CD47 expression analysis: After incubation, cells are washed and stained with an anti-CD47 antibody conjugated to Alexa-647 (Biolegend) to detect surface expression of CD47. More specifically, 1×10^6 cells are harvested and resuspended in 100 μl cell staining-buffer (PBS, 0.1% BSA, 0.1% sodium azide) and incubated with 5 μl Alexa-Fluor 647 labelled anti-CD47 antibody for 30 min on ice. Cells are washed in cell staining buffer and subsequently analyzed by flow cytometry.
# To assess the ability of the SMASH system to promote CD47 degradation, expression constructs were made containing the following expression cassettes: a) an EF1 a core promoter (EFS) operably linked to a human CD47 gene fused to a nucleic acid encoding a SMASH tag (EFS-CD47-SMASH, see FIG. 4, top); and b) a control containing the EFS promoter operably linked to the human CD47 gene alone (EFS-CD47). iPSCs were transduced with either the EFS-SMASH-CD47 expression cassette or control EFS-CD47 expression cassette by lentiviral transduction. The EFS-SMASH-CD47 transduced cells, EFS-CD47 transduced cells, and wild-type control cells were incubated in the presence of 0-10 μM of asunaprevir for 48 hours and CD47 expression was assessed using flow cytometry, as explained above.
# human CD47 [4] = assay: CD47 expression in control EFS-CD47 transduced and wild-type iPSCs with Shield-1
# From the text: To assess the ability of the LID system to promote CD47 degradation, expression constructs were made containing the following expression cassettes: a) an EF1a core promoter (EFS) operably linked to a human CD47 gene fused to a nucleic acid encoding the LID degron domain (EFS-CD47-LID, see FIG. 6, top); and b) a control containing the EFS promoter operable linked to the human CD47 gene alone (EFS-CD47). iPSCs were transduced with either the EFS-CD47-LID expression cassette or control EFS-CD47 expression cassette by lentiviral transduction.
# (§1) The EFS-CD47-LID transduced cells, EFS-CD47 transduced cells, and wild-type control cells were incubated in the presence of 0-1,000 nM of Shield-1 for 24 hours and CD47 expression was assessed using flow cytometry.
# [5] = test system: human CD47 fused to LID degron domain; assay: LID degron CD47 degradation in EFS-CD47-LID transduced iPSCs, flow cytometry; conditions: 0-1,000 nM Shield-1 for 24 hours, increasing doses
# From the text: In the LID system, the protein of interest (POI e.g., CD47) is fused to a LID degron domain (also referred to as “LID domain” or “LID degron”). The LID degron domain includes the FK506- and rapamycin-binding protein (FKBP) and a peptide degron (e.g., TRGVEEVAEGVVLLRRRGN) fused to the C-terminus of the FKBP (FIG. 5). […] The peptide degron is capable of binding to the FKBP active site and is not detected by cellular degradation proteins when sequestered in the active site, thus rendering it a cryptic degron. In the absence of Shield-1, a small molecule, the POI-LID fusion protein is stable. When present, Shield-1 binds tightly to FKBP, thereby displacing the peptide degron and inducing rapid degradation of the LID and any fused partner protein (e.g., CD47). […]
# as §1
smiles,measurement,setting,value
"Nc1nc(=O)[nH]cc1F [5-FC, 5-fluorocytosine]",killing of CD47 expressing EFS-CD-CD47 transduced cells,[1],observed
C=C[C@@H]1C[C@]1(NC(=O)[C@@H]1C[C@@H](Oc2ncc(OC)c3ccc(Cl)cc23)CN1C(=O)[C@@H](NC(=O)OC(C)(C)C)C(C)(C)C)C(=O)NS(=O)(=O)C1CC1 [asunaprevir],reduction in CD47 expression,[2],≥ 50%
same,expression of CD47,"human CD47 [3]; EFS-CD47 (""CD47 only"") cells without SMASH",generally unaltered
same,off-target effects on CD47 expression,"human CD47 [3]; EFS-CD47 cells, no significant CD47 knockdown, 0-10 μM for 48 hours",no off-target effects
same,expression of CD47,"human CD47 [3]; wildtype (""WT"") cells",remained at the baseline
CC[C@H](C(=O)N1CCCC[C@H]1C(=O)O[C@H](CCc1ccc(OC)c(OC)c1)c1cccc(OCCN2CCOCC2)c1)c1cc(OC)c(OC)c(OC)c1 [Shield-1],expression of CD47,"human CD47 [4]; EFS-CD47 (""CD47 only"") cells without LID, 0-1,000 nM for 24 hours",generally unaltered
same,off-target effects on CD47 expression,"human CD47 [4]; EFS-CD47 cells, no significant CD47 knockdown, 0-1,000 nM for 24 hours",no off-target effects
same,expression of CD47,"human CD47 [4]; wildtype (""WT"") cells, 0-1,000 nM Shield-1 for 24 hours",remained at the baseline
same,reduction in CD47 expression,[5],≥ 50%
